Test results published in patent US20110053910A1, “2 -HETEROCYCLYLOXYBENZOYL AMINO HETEROCYCLYL COMPOUNDS AS MODULATORS OF GLUCOKINASE FOR THE TREATMENT OF TYPE 2 DIABETES” (priority 2005, published 2011).

What was measured:
Zucker obese fa/fa rats = experiment: Oral Glucose Tolerance Test (OGTT); format: in vivo, rat; conditions: 10 mg/kg, given orally 120 minutes before glucose 2 g/kg; Zucker obese fa/fa rats on high fat diet; vehicle-control AUC = zero percent
Protocol: Oral glucose tolerance tests were done on conscious Zucker obese fa/fa rats (age 12-13 weeks or older) fed a high fat diet (45% kcal fat) for at least two weeks prior to experimentation. The animals were fasted for 2 hours before use for experiments. A test compound or a vehicle was given orally 120 minutes before oral administration of a glucose solution at a dose of 2 g/kg body weight. Blood glucose levels were measured using a Accucheck glucometer from tail bled samples taken at different time points before and after administration of glucose (time course of […]). A time curve of the blood glucose levels was generated and the area-under-the-curve (AUC) for 120 minutes was calculated (the time of glucose administration being time zero). Percent reduction in glucose excursion was determined using the AUC in the vehicle-control group as zero percent reduction.

[1] = target: T1, recombinant human pancreatic GLK (Homo sapiens, UniProt P35557); experiment: biochemical
T1 sequence (P35557 1-465): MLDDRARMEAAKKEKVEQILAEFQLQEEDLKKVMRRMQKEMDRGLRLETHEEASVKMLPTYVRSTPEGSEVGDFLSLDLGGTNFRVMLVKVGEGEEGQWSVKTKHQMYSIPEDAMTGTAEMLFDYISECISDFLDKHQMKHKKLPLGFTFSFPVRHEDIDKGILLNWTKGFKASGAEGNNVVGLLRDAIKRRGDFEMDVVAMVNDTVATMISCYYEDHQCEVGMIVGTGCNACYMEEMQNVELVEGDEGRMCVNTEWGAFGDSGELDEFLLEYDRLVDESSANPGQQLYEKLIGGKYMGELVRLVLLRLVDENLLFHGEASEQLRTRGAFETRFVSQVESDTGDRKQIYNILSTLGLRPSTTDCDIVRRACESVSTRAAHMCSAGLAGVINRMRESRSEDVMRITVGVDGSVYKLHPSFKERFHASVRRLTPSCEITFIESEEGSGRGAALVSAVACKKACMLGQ

## C[C@@H](CO)Oc1cc(Oc2nc3ccccc3s2)cc(C(=O)Nc2ccn(C)n2)c1 [Example 1, 3-(1,3-Benzothiazol-2-yloxy)-5-{[(1S)-2-hydroxy-1-methylethyl]oxy}-N-(1-methyl-1H-pyrazol-3-yl)benzamide]
Zucker obese fa/fa rats
  activity in OGTT (percent reduction in glucose excursion, AUC): 50%
[1]
  EC50: 88 nM
